# Test results as given in patent US20240247048A1 (EMORY UNIVERSITY, priority 2021, published 2024).
# Tests used:
# [1] = test system: luciferase+ mouse T cells; experiment: proliferation of luciferase+ mouse T cells in vitro (plate-bound anti-CD3, luminescence); assay type: cell-based; settings: 96 hours; for lowest concentration of peptide that led to maximal luminescence: luc+ T cell proliferation, plate-bound anti-CD3; for luc+ T cell proliferation: relative luminescence, quadruplicate wells, plate-bound anti-CD3, daily addition of peptide, at the concentration in brackets
# From the text: (§1) VIP-related peptides tested in silico for predicted binding affinities to human VPAC1 and VPAC2 (Creative Biolabs). Docking scores show predicted free energy change associated with peptide binding. Note that a greater negative score is predicted to be associated with higher binding affinity. Based upon an initial screen of 300 peptides for binding affinity to VPAC1 and screening a subset of 100 peptides for binding affinity to VPAC2, a select group of peptides were synthesized and tested for their ability to stimulate proliferation of luciferase+ mouse T cells in vitro. The lowest concentration of peptide that led to maximal luminescence is shown. Proliferation data represents the relative level of luminescence from quadruplicate wells containing 1×10E5 T cells/well in a 96 well tissue culture plate stimulated for 96 hours with plate-bound anti-CD3 antibodies. Confirmatory in vivo testing of select peptides was then performed based upon their ability to induce autologous anti-leukemia responses in C57Bl/6 mice that had been previously injected with 1×10E6 C1498 acute myeloid leukemia cells. Leukemia cells were injected on day 0, 10 ug peptide was injected s.c. daily on days 6-12. The predicted binding affinity to VPAC1 and/or VPAC2 was associated with enhanced activity in stimulating mouse T cell proliferation and anti-leukemia activity in mice.
# [2] = test system: C1498 acute myeloid leukemia cells; experiment: survival of mice engrafted with C1498 acute myeloid leukemia; assay type: in vivo, mouse; design: percentage of survival: concentration or dose not given beside the values; settings: for Median survival time / Percentage alive day 60: 1 x 10E6 C1498 i.v. on day 0, 10 ug peptide s.c. daily on days 6-12; for percentage of survival: FIG. 3, leukemia-bearing mice treated with peptide
# Experimental: B6 (CD45.2, H-2K^b) mice were administered C1498 1×10^6/mouse through tail vein. […] Survival of the mice was observed daily. Data were pooled from 3 replicated experiments.
# B6 (CD45.2, H-2K^b) mice were administered C1498 1×10^6/mouse through tail vein. […] Survival of the mice was observed daily. Survival of the mice were pooled from 3 replicated experiments and analyzed by log-rank test compared with the survival of mice treated with scrambled peptide.
# B6 SJL (CD45.1, H-2K^b) mice were administered C1498 (CD45.2 H-2K^b) 1×10^6/mouse through tail vein. […] The mice were bled weekly from the submandibular vein, starting from day 6, prior to the administration of peptides. Antibodies to CD45.2 identified myeloid leukemia cells and antibodies to CD45.1 identified murine leukocytes of the host.
# as §1
# To test the ability of the disclosed VIP-R antagonists to effect survival to acute myeloid leukemia survival, B6 (CD45.2, H-2K^b) mice were administered C1498 1×10^6/mouse through tail vein. […] Survival of the mice was observed daily.
# human T cells = experiment: activation of healthy-donor human T cells (anti-CD3), marker expression by flow cytometry; assay type: cell-based; settings: across multiple donors
# Experimental: Mean value from ‘Activated’ group shown with dotted line (---) for comparison. Responses from same healthy donors are shown with same color dots. Error bars are computed as the standard error of the mean (SEM) from 6 healthy donor samples.
# This study adopted an ex-vivo system using human T cells isolated from healthy donors to screen for novel VIP-R antagonist peptides. Human T cells were cultured over 6 or 24 hours with activation in the presence or absence of peptides and were assessed for percent CD69 surface expression by flow cytometry to measure the state of T cell activation. The activity of the peptides was determined by percent increase in CD69 expression relative to no peptide control. […] We also observed that amongst the donors, most were classified as average responders, with measured value for CD69 expression within the error bars while two others had measured values outside the error bars, one sample reflecting a super-responder (purple dots) and one sample reflecting a slow-responder (green dots) (FIGS. 10A and 10B). […]
# Human T cell activation and expansion. […] Cells were counted using Trypan blue dye and phenotyped via flow cytometry on day 9. […]
sequence,measurement,setting,value
KPRRPYTDNCTRLRKQMAVKKYLNSILN [ANT005],lowest concentration of peptide that led to maximal luminescence,[1],3 µM
same,luc+ T cell proliferation,[1],187% + 1%
KPRRPYADNYTRLRKQMAVNKYLNLILN [ANT058],Median survival time,[2],35 days
same,Percentage alive day 60,[2],30%
same,percentage of survival,[2],30%
"HSDAVFINTKLDKLNTRLVSAQNYMKYR [SCRAM1, reference compound]",Median survival time,[2],28 days
same,Percentage alive day 60,[2],0%
KKPRRPYTVNCTSLRKQIAVKKYLMLILN [ANT219],Median survival time,[2],35 days
same,Percentage alive day 60,[2],20%
same,percentage of survival,[2],20%
same,lowest concentration of peptide that led to maximal luminescence,[1],3 µM
same,luc+ T cell proliferation,[1],189% + 8%
KPRRPYAVNCTSLRKQIAVKKYLMSILN [ANT203],Median survival time,[2],34 days
same,Percentage alive day 60,[2],25%
same,percentage of survival,[2],25%
same,lowest concentration of peptide that led to maximal luminescence,[1],3 µM
same,luc+ T cell proliferation,[1],185% + 8%
"KPRRPYTDNYTRLRKQMAVKKYLNSILN [VIPhyb, reference compound]",Median survival time,[2],34 days
same,Percentage alive day 60,[2],5%
same,percentage of survival,[2],5%
same,lowest concentration of peptide that led to maximal luminescence,[1],1 µM
same,luc+ T cell proliferation,[1],197% + 38%
KPRRPYAVNCTSLRKQIAVNKYLNSILN [ANT202],lowest concentration of peptide that led to maximal luminescence,[1],3 µM
same,luc+ T cell proliferation,[1],171% + 8%
KPRRPYTSDYTRLRKQMAVKKYLNSILN [ANT300],Median survival time,[2],47 days
same,Percentage alive day 60,[2],33.30%
same,lowest concentration of peptide that led to maximal luminescence,[1],0.3 µM
same,luc+ T cell proliferation,[1],216% + 20%
"HSDAVFTDNYTRLRKQMAVKKYLNSILN [VIP, reference compound]",Median survival time,[2],30 days
same,Percentage alive day 60,[2],0%
same,lowest concentration of peptide that led to maximal luminescence,[1],0.1 µM
same,luc+ T cell proliferation,[1],77% + 13%
KPRRPYAVNYTRLRKQMAVNKYLMSILN [ANT107],Median survival time,[2],38 days
same,Percentage alive day 60,[2],30%
same,percentage of survival,[2],20%
KPRRPYTDNCTSLRKQIAVNKYLNLILN [ANT197],Median survival time,[2],37 days
same,Percentage alive day 60,[2],35%
same,percentage of survival,[2],35%
same,lowest concentration of peptide that led to maximal luminescence,[1],3 µM
same,luc+ T cell proliferation,[1],161% + 13%
KPRRPYTVNYTSLRKQIAVKKYLMLILN [ANT195],activity compared among the three antagonists (CD69),human T cells,highest activity
same,Median survival time,[2],38 days
same,Percentage alive day 60,[2],40%
same,percentage of survival,[2],40%
same,lowest concentration of peptide that led to maximal luminescence,[1],3 µM
same,luc+ T cell proliferation,[1],161% + 23%
"KPRRPYINTKLDKLNTRLVSAQNYMKYR [SCRAM2, reference compound]",Percentage alive day 60,[2],0%
same,luc+ T cell proliferation,[1],108.74%
KPRRPYAVNYTRLRKQIAVKKYLMSILN [ANT105],lowest concentration of peptide that led to maximal luminescence,[1],3 µM
same,luc+ T cell proliferation,[1],121% + 6%
KPRRPYADNCTRLRKQIAVNKKYLNSILN [ANT114],Median survival time,[2],34 days
same,Percentage alive day 60,[2],20%
same,percentage of survival,[2],20%
